Activity calls are given as the source filed them. The calls are words filed in the database; no cut-off is given here.
Columns and labels:
Huh-7 [1] = assay: Induction of mitochondrial membrane potential changes in human Huh-7 cells assessed as decrease in TMRE positive cells at 80 nM incubated for 24 hrs by TMRE staining based flow cytometry; type: functional, cell-based
Huh-7 [2] = assay: Antiproliferative activity against human Huh-7 cells treated for 72 hrs by MTT assay; type: functional, cell-based; conditions: Huh-7, 72 h
[3] = biological target: T1, DNA topoisomerase 1 (Homo sapiens) (UniProt P11387); assay: Inhibition of Top1 (unknown origin) assessed as inhibition of relaxation of supercoiled pBR322 plasmid DNA at 50 uM incubated for 25 mins by ethidium bromide staining based agarose gel electrophoresis analysis relative to control
T1 sequence (whole entry): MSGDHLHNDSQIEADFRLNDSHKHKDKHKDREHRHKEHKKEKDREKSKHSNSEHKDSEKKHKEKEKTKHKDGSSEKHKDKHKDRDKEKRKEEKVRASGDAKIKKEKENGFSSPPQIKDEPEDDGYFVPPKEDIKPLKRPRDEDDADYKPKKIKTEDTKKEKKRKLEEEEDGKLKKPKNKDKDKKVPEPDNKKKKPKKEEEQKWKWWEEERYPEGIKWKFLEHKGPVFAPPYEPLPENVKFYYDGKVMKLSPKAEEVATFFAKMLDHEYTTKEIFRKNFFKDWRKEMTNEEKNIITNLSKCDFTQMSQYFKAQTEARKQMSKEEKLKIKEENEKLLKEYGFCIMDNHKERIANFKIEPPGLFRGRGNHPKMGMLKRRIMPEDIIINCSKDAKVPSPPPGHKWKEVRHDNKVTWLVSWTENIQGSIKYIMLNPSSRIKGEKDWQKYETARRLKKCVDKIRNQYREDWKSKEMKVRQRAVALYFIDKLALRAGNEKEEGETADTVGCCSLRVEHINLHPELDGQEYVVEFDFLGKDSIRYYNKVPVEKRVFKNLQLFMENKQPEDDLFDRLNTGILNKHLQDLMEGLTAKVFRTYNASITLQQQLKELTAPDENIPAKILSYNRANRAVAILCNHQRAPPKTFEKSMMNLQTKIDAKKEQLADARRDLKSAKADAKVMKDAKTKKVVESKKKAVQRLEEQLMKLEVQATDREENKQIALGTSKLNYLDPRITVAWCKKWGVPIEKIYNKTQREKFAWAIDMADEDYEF

[4] = biological target: T1, DNA topoisomerase 1 (Homo sapiens); assay: Inhibition of Top1 (unknown origin) assessed as inhibition of relaxation of supercoiled pBR322 plasmid DNA at 12.5 uM incubated for 25 mins by ethidium bromide staining based agarose gel electrophoresis analysis relative to control
[5] = biological target: DNA topoisomerase 2-alpha (Homo sapiens) (UniProt P11388); assay: Inhibition of human Top2-alpha expressed in baculovirus assessed as inhibition of relaxation of supercoiled pBR322 plasmid DNA at 100 uM incubated for 30 mins in presence of ATP by ethidium bromide staining based agarose gel electrophoresis analysis relative to control
Chain of DNA topoisomerase 2-alpha (Homo sapiens) (P11388 whole entry): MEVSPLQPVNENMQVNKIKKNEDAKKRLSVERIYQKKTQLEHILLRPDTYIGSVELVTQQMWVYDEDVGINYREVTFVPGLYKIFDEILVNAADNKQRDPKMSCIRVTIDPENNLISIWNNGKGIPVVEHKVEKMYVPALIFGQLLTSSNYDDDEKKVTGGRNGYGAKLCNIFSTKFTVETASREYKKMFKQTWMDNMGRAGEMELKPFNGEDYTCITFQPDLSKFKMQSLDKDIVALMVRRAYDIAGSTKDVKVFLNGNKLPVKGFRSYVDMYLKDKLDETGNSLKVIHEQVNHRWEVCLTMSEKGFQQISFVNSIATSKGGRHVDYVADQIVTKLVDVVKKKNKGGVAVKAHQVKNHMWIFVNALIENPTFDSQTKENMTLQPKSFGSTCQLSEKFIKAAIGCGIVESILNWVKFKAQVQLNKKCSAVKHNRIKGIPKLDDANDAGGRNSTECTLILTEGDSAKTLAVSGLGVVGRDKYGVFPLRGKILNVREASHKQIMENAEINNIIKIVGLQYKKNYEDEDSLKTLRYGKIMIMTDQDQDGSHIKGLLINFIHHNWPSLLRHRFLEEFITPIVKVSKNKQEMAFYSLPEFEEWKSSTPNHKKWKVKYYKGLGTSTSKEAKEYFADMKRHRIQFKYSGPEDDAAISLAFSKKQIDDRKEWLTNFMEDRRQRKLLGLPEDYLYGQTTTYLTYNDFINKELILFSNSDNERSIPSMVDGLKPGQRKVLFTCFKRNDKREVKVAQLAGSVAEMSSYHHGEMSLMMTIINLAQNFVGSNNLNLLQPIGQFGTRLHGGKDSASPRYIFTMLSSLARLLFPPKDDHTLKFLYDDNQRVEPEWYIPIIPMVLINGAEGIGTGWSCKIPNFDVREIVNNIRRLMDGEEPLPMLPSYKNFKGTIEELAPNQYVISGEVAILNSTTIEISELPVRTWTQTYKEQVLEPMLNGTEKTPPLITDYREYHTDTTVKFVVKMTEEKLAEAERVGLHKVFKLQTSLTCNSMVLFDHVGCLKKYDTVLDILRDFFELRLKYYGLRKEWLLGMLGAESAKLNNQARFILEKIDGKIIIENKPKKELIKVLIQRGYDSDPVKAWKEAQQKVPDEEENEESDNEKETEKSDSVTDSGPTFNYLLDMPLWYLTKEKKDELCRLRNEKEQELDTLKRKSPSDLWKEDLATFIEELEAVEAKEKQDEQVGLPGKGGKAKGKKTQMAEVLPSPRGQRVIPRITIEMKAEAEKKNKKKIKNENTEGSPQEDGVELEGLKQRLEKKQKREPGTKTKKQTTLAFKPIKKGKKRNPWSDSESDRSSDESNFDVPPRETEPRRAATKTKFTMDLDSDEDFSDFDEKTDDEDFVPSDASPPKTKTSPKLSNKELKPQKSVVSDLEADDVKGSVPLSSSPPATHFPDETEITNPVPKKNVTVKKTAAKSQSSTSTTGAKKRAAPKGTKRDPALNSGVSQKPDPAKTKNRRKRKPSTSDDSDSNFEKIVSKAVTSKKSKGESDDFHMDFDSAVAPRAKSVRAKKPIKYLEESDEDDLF

Huh-7 [6] = assay: Induction of cell cycle arrest in human Huh-7 cells assessed as accumulation at G1 phase at 40 nM treated for 24 hrs by PI staining based flow cytometry (reference value: 60.77 %); type: functional
Huh-7 [7] = assay: Induction of cell cycle arrest in human Huh-7 cells assessed as accumulation at S phase at 40 nM treated for 24 hrs by PI staining based flow cytometry (reference value: 23.33 %); type: functional
Huh-7 [8] = assay: Induction of cell cycle arrest in human Huh-7 cells assessed as accumulation at G1 phase at 10 nM treated for 24 hrs by PI staining based flow cytometry (reference value: 60.77 %); type: functional
SK-HEP1 [9] = assay: Induction of cell cycle arrest in human SK-Hep1 cells assessed as accumulation at G1 phase at 40 nM treated for 24 hrs by PI staining based flow cytometry (reference value: 58.47 %); type: functional
SK-HEP1 [10] = assay: Induction of cell cycle arrest in human SK-Hep1 cells assessed as accumulation at G2 phase at 40 nM treated for 24 hrs by PI staining based flow cytometry (reference value: 16.55 %); type: functional
SK-HEP1 [11] = assay: Induction of cell cycle arrest in human SK-Hep1 cells assessed as accumulation at S phase at 40 nM treated for 24 hrs by PI staining based flow cytometry (reference value: 24.98 %); type: functional
SK-HEP1 [12] = assay: Induction of cell cycle arrest in human SK-Hep1 cells assessed as accumulation at G1 phase at 10 nM treated for 24 hrs by PI staining based flow cytometry (reference value: 58.47 %); type: functional
SK-HEP1 [13] = assay: Induction of apoptosis in human SK-Hep1 cells assessed as cell membrane permeability by measuring blue fluorescence incubated for 24 hrs by Hoechst staining based microscopy; type: functional; conditions: dose 12-60 nM, DDE = dose-dependent effect
Huh-7 [14] = assay: Induction of apoptosis in human Huh-7 cells assessed as viable cells at 40 nM incubated for 24 hrs by annexin V-FITC/PI staining flow cytometry (reference value: 97.3 %); type: functional; conditions: read-out: Activity
Huh-7 [15] = assay: Induction of apoptosis in human Huh-7 cells assessed as late apoptotic cells at 80 nM incubated for 24 hrs by annexin V-FITC/PI staining flow cytometry (reference value: 1.33 %); type: functional
SK-HEP1 [16] = assay: Induction of apoptosis in human SK-Hep1 cells assessed as early apoptotic cells at 40 nM incubated for 24 hrs by annexin V-FITC/PI staining flow cytometry (reference value: 0.30 %); type: functional
SK-HEP1 [17] = assay: Induction of apoptosis in human SK-Hep1 cells assessed as late apoptotic cells at 40 nM incubated for 24 hrs by annexin V-FITC/PI staining flow cytometry (reference value: 1.13 %); type: functional
SK-HEP1 [18] = assay: Inhibition of cell migration in human SK-HEP1 cells at 3 to 18 nM incubated for 24 hrs by crystal violet staining based transwell assay; type: functional; conditions: dose 3-18 nM
HSC-T6 = assay: Suppression of TGF-beta-1-stimulated rat HSC-T6 cells activation assessed as reduction in Col-1 levels at 10 to 80 nM preincubated with TGFbeta-1 followed by compound addition and measured after 24 to 48 hrs by ELISA; type: functional, cell-based; conditions: dose 10-80 nM, time 24-48 hrs
[19] = Induction of apoptosis in rat HSC-T6 cells assessed as early apoptotic cells at 10 nM pretreated with TGFbeta-1 for 1 day followed by compound addition and measured after 24 hrs by flow cytometry (reference value: 0.17 %); type: functional
[20] = Induction of apoptosis in rat HSC-T6 cells assessed as necrotic cells at 10 nM pretreated with TGFbeta-1 for 1 day followed by compound addition and measured after 24 hrs by flow cytometry (reference value: 0.56 %); type: functional
[21] = Induction of apoptosis in rat HSC-T6 cells assessed as late apoptotic cells at 80 nM pretreated with TGFbeta-1 for 1 day followed by compound addition and measured after 24 hrs by flow cytometry (reference value: 1.76 %); type: functional
SMMC-7721 = assay: Antiproliferative activity against human SMMC-7721 cells treated for 72 hrs by MTT assay; type: functional, cell-based; conditions: SMMC-7721, 72 h
Huh-7 [22] = assay: Inhibition of cell invasion in human Huh-7 cells at 3 to 18 nM incubated for 24 hrs by matrigel based assay; type: functional; conditions: dose 3-18 nM
SK-HEP1 [23] = assay: Inhibition of cell invasion in human SK-HEP1 cells at 3 to 18 nM incubated for 24 hrs by matrigel based assay; type: functional; conditions: dose 3-18 nM

| SMILES | Activity (Huh-7 [1]) | IC50 (Huh-7 [2]) | inhibition [3] | inhibition [4] | inhibition [5] | Activity (Huh-7 [6]) | Activity (Huh-7 [7]) | Activity (Huh-7 [8]) | Activity (SK-HEP1 [9]) | Activity (SK-HEP1 [10]) | Activity (SK-HEP1 [11]) | Activity (SK-HEP1 [12]) | Activity (SK-HEP1 [13]) | viability at 0.04 µM (Huh-7 [14]) | Activity (Huh-7 [15]) | Activity (SK-HEP1 [16]) | Activity (SK-HEP1 [17]) | inhibition (SK-HEP1 [18]) | inhibition (HSC-T6) | Activity [19] | further results |
| --- | --- | --- | --- | --- | --- | --- | --- | --- | --- | --- | --- | --- | --- | --- | --- | --- | --- | --- | --- | --- | --- |
| CC(=O)Oc1ccc2[nH]c3c(c2c1)CCN1C(=O)c2cc(F)cc(F)c2N(c2cccc(F)c2)C31 (stereo not given) | Active | 30 nM | 94% | 56.1% | 63.7% | 28.25% | 21.48% | 51.9% | 25.35% | 70.47% | 4.18% | 62.52% | Dde | 62.9% | 29.4% | 8.25% | 13.4% | Active | Active | 0.52% | Activity [20]: 0.93%; Activity [21]: 53%; IC50 (SMMC-7721): 80 nM; inhibition (Huh-7 [22]): Active; inhibition (SK-HEP1 [23]): Active |
| O=C1c2cc(F)cc(F)c2N(c2cccc(F)c2)C2c3[nH]c4ccc(O)cc4c3CCN12 (stereo not given) | Active | 40 nM | 92.5% | 43.9% | 67% | 15.01% | 21.24% | 46.78% | 21.83% | 74.07% | 4.11% | 54.93% | Dde | 79.5% | 30% | 8.02% | 13.6% | Active | Active | 0.084% | Activity [20]: 0.8%; Activity [21]: 41.8%; IC50 (SMMC-7721): 90 nM; inhibition (Huh-7 [22]): Active; inhibition (SK-HEP1 [23]): Active |

Reference: ChEMBL document CHEMBL5154935, “Design, Synthesis, and Biological Evaluation of Novel Evodiamine Derivatives as Potential Antihepatocellular Carcinoma Agents” (J Med Chem, 2022)
